{
  "source": "patent US9522881B2",
  "about": "“Hydroxyindole carboxylic acid based inhibitors for oncogenic Src homology-2 domain containing protein tyrosine phosphatase-2 (SHP2)” (Indiana University Research and Technology Corporation, priority 2013, dated 2016)",
  "key": {"PTPH1": {"biological_target": "PTPH1 (Homo sapiens (Human), UniProt P26045)", "sequence (P26045 whole entry, species assumed)": "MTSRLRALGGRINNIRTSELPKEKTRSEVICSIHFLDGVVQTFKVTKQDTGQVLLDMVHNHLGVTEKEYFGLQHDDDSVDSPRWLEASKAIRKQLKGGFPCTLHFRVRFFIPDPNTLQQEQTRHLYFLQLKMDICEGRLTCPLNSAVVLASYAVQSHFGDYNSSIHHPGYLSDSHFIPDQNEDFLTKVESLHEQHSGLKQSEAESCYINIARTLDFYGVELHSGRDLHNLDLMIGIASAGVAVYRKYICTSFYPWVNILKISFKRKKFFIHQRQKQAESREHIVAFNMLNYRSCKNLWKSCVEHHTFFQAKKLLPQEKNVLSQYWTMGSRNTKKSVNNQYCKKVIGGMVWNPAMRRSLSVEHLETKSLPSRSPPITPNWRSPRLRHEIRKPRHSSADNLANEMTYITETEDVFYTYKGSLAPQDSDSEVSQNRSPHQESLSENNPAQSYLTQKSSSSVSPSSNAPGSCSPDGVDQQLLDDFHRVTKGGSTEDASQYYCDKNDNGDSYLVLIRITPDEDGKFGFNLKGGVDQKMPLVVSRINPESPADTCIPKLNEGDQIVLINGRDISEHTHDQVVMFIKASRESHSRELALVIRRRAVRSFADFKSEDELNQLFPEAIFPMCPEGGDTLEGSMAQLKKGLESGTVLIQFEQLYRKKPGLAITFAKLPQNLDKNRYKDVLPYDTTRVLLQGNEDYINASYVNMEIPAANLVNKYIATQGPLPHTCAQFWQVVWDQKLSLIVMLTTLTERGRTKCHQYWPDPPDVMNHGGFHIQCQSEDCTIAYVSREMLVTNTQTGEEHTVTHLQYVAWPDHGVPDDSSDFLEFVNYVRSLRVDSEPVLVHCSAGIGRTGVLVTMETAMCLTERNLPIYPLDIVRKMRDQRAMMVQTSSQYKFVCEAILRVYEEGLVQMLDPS", "test": "PTP selectivity panel, pNPP", "type": "biochemical, mammalian", "conditions": "pNPP at Km"}, "SHP1": {"biological_target": "SHP1 (Homo sapiens (Human), UniProt P29350)", "sequence (P29350 whole entry)": "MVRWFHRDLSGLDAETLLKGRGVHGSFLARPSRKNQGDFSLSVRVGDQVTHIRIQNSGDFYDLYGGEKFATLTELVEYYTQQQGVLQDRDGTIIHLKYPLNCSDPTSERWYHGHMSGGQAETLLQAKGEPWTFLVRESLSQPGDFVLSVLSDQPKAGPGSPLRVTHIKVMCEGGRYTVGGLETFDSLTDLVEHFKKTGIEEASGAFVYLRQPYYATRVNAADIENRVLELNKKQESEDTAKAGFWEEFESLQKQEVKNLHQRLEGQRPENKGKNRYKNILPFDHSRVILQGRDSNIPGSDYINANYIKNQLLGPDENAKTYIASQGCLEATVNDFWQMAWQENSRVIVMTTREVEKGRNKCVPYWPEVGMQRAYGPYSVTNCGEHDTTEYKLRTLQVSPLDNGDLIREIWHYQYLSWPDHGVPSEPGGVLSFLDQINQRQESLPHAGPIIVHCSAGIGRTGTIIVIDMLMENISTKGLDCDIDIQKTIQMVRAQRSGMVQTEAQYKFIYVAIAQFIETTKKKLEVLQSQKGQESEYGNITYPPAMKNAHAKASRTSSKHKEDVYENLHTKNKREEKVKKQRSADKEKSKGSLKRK", "test": "PTP selectivity panel, pNPP", "type": "biochemical, mammalian"}, "PTPγ": {"biological_target": "PTPγ (Homo sapiens (Human), UniProt P23470)", "sequence (P23470 20-1445)": "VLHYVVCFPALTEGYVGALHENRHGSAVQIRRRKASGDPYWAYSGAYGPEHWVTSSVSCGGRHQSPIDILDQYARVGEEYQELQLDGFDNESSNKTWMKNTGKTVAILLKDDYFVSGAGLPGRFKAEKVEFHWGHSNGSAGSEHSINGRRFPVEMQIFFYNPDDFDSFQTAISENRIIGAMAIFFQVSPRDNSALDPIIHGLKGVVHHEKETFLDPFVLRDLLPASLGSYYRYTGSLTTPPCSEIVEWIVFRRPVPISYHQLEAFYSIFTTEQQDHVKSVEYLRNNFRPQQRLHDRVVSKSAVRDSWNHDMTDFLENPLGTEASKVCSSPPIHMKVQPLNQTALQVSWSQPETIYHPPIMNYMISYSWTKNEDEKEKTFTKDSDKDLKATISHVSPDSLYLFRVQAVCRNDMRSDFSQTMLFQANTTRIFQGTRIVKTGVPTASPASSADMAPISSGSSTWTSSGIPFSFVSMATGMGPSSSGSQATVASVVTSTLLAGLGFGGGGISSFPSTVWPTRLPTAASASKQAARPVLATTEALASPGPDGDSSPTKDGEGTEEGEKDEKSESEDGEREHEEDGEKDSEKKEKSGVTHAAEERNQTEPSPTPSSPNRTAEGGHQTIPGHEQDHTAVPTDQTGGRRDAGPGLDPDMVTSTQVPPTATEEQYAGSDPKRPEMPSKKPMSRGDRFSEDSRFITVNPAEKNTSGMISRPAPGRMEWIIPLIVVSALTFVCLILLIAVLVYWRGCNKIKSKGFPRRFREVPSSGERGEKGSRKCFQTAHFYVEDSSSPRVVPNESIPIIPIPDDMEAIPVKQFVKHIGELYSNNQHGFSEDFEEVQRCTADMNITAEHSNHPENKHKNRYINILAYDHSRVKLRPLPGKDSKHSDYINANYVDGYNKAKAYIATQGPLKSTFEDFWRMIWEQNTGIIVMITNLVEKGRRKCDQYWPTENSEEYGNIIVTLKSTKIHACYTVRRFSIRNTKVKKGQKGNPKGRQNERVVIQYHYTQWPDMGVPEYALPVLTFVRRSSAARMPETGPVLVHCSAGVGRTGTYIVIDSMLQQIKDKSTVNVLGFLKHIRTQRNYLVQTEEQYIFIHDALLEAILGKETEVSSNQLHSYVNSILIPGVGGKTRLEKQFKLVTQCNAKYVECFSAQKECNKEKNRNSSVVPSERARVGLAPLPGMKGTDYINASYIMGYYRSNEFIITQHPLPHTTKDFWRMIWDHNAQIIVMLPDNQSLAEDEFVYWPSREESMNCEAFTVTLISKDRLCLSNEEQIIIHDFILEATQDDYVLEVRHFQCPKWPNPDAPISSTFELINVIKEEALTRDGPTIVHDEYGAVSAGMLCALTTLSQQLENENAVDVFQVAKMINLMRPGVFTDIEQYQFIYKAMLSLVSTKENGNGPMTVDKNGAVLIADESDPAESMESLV", "test": "PTP selectivity panel, pNPP", "type": "biochemical, mammalian", "conditions": "pNPP at Km"}, "UBLCP1": {"biological_target": "UBLCP1 (Homo sapiens (Human), UniProt Q8WVY7)", "sequence (Q8WVY7 whole entry, species assumed)": "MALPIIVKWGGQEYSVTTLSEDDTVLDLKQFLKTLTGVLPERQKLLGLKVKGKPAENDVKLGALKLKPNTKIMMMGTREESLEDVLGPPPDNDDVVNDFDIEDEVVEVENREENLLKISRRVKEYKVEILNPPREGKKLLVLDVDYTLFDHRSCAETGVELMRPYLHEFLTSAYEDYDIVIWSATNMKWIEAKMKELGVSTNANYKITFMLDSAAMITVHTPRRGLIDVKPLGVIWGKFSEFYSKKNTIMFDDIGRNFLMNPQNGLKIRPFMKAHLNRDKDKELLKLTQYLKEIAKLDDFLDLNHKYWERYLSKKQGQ", "test": "PTP selectivity panel, pNPP", "type": "biochemical, mammalian", "conditions": "pNPP at Km"}, "Laforin": {"biological_target": "Laforin (Homo sapiens (Human), UniProt O95278)", "sequence (O95278 whole entry, species assumed)": "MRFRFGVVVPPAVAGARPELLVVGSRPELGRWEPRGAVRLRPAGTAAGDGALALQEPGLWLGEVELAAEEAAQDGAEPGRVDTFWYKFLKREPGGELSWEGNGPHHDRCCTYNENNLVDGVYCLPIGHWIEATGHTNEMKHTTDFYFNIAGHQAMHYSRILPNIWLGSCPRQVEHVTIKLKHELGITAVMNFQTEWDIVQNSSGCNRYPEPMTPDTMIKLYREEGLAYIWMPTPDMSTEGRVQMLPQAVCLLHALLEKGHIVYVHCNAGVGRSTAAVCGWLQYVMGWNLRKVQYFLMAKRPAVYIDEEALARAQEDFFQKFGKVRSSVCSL", "test": "PTP selectivity panel, pNPP", "type": "biochemical, mammalian", "conditions": "pNPP at Km"}, "Paxillin (pY118)": {"test_system": "Paxillin (pY118)", "test": "Paxillin (pY118) phosphorylation in H1975 cells (immunoblot)", "type": "cell-based, human", "method": "For biochemical studies, H1975 cells were serum-starved overnight followed by treatment with vehicle or compound 11a-1 for 3 hours, and then either left unstimulated or stimulated with 5 ng/ml EGF (Sigma, St. Louis, Mo.) for 60 minutes. Lysates were then resolved by SDS-PAGE and the protein phosphorylation levels were detected by immunoblot analysis. Specifically, cells were lysed in lysis buffer (1.0% Nonidet P-40, 50 mM Tris-HCl (pH 7.4), 150 mM NaCl, 5 mM EDTA, 2 mM NaVO3, 10 mM NaF) plus a protease inhibitor mixture available from Roche (Basel, Switzerland) and centrifuged at 10,000 rpm for 5 minutes at 4° C. Supernatants were collected and protein concentration was determined using the BCA protein assay (ThermoFisher Scientific, Rockford, Ill.). Equal amount of protein extracts were mixed with gel loading buffer and separated on SDS-PAGE. After electrophoresis, the proteins were transferred onto nitrocellulose membranes and nonspecific binding was blocked with 5% nonfat dry milk in Tris-buffered saline containing 0.1% Tween-20 (TBS-T). Membranes were then probed with various antibodies overnight at 4° C. on a rocker. After incubation, membranes were washed with TBS-T and incubated with appropriate horseradish peroxidase (HRP)-conjugated secondary antibodies for 1 hour at room temperature. Finally, the proteins on the membranes were detected using SuperSignal West Dura Luminol/Enhancer solution (ThermoFisher Scientific, Rockford, Ill.) and membranes were analyzed using Bio-Rad ChemiDoc XRS Imaging System."}, "[1]": {"test_system": "Erk1/2 and Akt phosphorylation", "test": "Erk1/2 and Akt phosphorylation in SKBR3 cells recovered from Matrigel (immunoblot)", "type": "cell-based", "conditions": "1 μM to 10 μM, 4 days in Matrigel", "method": "Approximately 300,000 SKBR3 cells were seeded into 150 μl of growth factor reduced Matrigel (Corning, Corning, N.Y.) in 35 mm dishes. To 3 dishes for each condition, 2 mL of media containing either 10 μl vehicle (DMSO) or compound 11a-1 at the indicated concentration was then added. Every 24 hours, the cells were imaged with a NIKON SMZ1500 stereomicroscoppe. The cross-sectional area of individual colonies from each image were measured using Adobe Photoshop software. After 4 days, the cells were recovered from the Matrigel and lysed in PLC buffer containing protease inhibitor cocktail (Cat. No. P8340; Sigma-Aldrich, St. Louis, Mo.). Lysates were then resolved by SDS-PAGE and relative levels of the indicated proteins were detected by immunoblot analysis."}, "[2]": {"test_system": "32D myeloid cells bearing wild-type (WT) KIT", "test": "Proliferation (thymidine incorporation) of 32D myeloid cells bearing WT KIT", "type": "cell-based", "conditions": "tested concentrations, with IL-3", "method": "FIG. 8A is a graph depicting 32D myeloid cells bearing wild-type (WT) KIT or KITD814V that were starved of serum and growth factors for 6 hours and subjected to proliferation assay in the presence or absence of the indicated concentration of II-B08 or 11a-1 as analyzed in Example 6. Assay was performed in the presence of IL-3 (10 ng/mL) for cells bearing WT KIT and in the absence of growth factors for cells bearing oncogenic KITD814V. Bars denote the mean thymidine incorporation (CPM±SEM) consolidated from four independent experiments performed in triplicate. *p<0.05.\nTo further determine the efficacy of compound 11a-1, the growth of oncogenic KITD814V bearing 32D myeloid cells in the presence of II-B08 and 11a-1 were compared. Specifically, the wild-type (WT) KIT and KITD814V were inserted into the bicistronic retroviral vector, MIEG3, upstream of the internal ribosome entry site (IRES) and the enhanced green fluorescent protein (EGFP) gene as previously described in Mali et al., 2012. Retroviral supernatants for transduction of 32D myeloid cells and primary hematopoietic stem and progenitor cells were generated using Phoenix ecotropic packaging cell line transfected with retroviral vector plasmids using a calcium phosphate transfection kit (Invitrogen, Carlsbad, Calif.). Supernatants were collected 48 hours after transfection and filtered through 0.45 μm membranes. […]"}, "[3]": {"test_system": "primary low density bone marrow cells bearing KITD814V", "test": "Proliferation of primary bone marrow cells bearing KITD814V", "type": "cell-based, C57BL/6 mice", "conditions": "1 μM and 5 μM, compared to II-B08", "method": "FIG. 8B is a graph depicting WT hematopoietic stem and progenitor cells bearing KITD814V that were starved of serum and growth factors for 6 hours and subjected to proliferation assay in the presence or absence of indicated concentration of II-B08 or 11a-1 as analyzed in Example 6. Bars denote the mean thymidine incorporation (CPM±SD) performed in triplicate from one experiment. *p<0.05.\nTo further determine the effect of II-B08 and compound 11a-1 on primary bone marrow cells bearing oncogenic KITD814V, primary low density bone marrow cells from C57BL/6 mice were transduced with KITD814V and sorted cells were subjected to a proliferation assay in the presence or absence of the SHP2 inhibitors, II-B08 and compound 11a-1. To express WT KIT and KITD814V receptors in bone marrow cells, low density bone marrow cells were collected from WT mice, and pre-stimulated in IMDM supplemented with 20% FBS, 2% penicillin/streptomycin, and cytokines (100 ng/mL SCF, 100 ng/mL TPO, 50 ng/mL FLT3-L and 4 ng/mL IL-6) for 48 hours prior to retroviral infection on fibronectin fragments (Retronectin) in non-tissues culture plates. On the third day, cells were infected with 2 mL of high-titer retroviral supernatants for WT KIT or KITD814V prepared as described above. A second shot of viral infection was given 24 hours later. […]"}, "[4]": {"test_system": "phosphorylation of SHP2, Akt and Erk1/2", "test": "Phosphorylation of SHP2, Akt and Erk1/2 in 32D cells bearing KITD814V (western blot)", "type": "cell-based", "conditions": "incubated 2 hours", "method": "FIG. 8C depicts 32D myeloid cells bearing KITD814V that were starved of serum and growth factors for 6 hours and incubated with the indicated concentration of 11a-1 for 2 hours as analyzed in Example 6. After treatment, cells were lysed and equal amount of protein lysates were subjected to western blot analysis using indicated antibodies."}},
  "data": [
    {"smiles": "Cn1c(-c2cccc(NC(=O)C(=O)Nc3ccc(-c4ccsc4)cc3)c2)c(I)c2cc(C(=O)O)c(O)cc21", "note": "[11a-1, 6-hydroxy-3-iodo-1-methyl-2-(3-(2-oxo-2-((4-(thiophen-3-yl)phenyl)amino)acetamido)phenyl)-1H-indole-5-carboxylic acid]", "values": [
      {"measurement": "IC50", "setting": "PTPH1", "result": "1070 ± 70", "unit": "nM"},
      {"measurement": "preference for SHP2 over SHP1", "setting": "SHP1", "result": 7, "unit": "fold"},
      {"measurement": "IC50", "setting": "SHP1; pNPP at Km", "result": "1440 ± 40", "unit": "nM"},
      {"measurement": "IC50", "setting": "PTPγ", "result": "2400 ± 400", "unit": "nM"},
      {"measurement": "IC50", "setting": "UBLCP1", "result": "9700 ± 500", "unit": "nM"},
      {"measurement": "IC50", "setting": "Laforin", "result": "12200 ± 2000", "unit": "nM"},
      {"measurement": "augmentation of Paxillin phosphorylation", "setting": "Paxillin (pY118); 2 μM", "result": 30, "unit": "%"},
      {"measurement": "effect on EGF induced Paxillin (Y118) phosphorylation", "setting": "Paxillin (pY118); dose-dependent", "result": "dose-dependently increased"},
      {"measurement": "Erk1/2 and Akt phosphorylation in SKBR3 cells", "setting": "[1]", "result": "concordantly inhibited"},
      {"measurement": "growth of WT KIT bearing 32D cells", "setting": "[2]", "result": "no significant suppression"},
      {"measurement": "growth of primary bone marrow cells bearing KITD814V", "setting": "[3]", "result": "significant reduced growth"},
      {"measurement": "phosphorylation of SHP2, Akt and Erk1/2 in KITD814V bearing 32D cells", "setting": "[4]", "result": "dose dependent inhibition"}
    ]}
  ]
}
